Data as given in patent publication US11083725B2 (priority 2014, dated 2021).

System: NHBE cells
Test: Biolog metabolic array: substrate use by NHBE cells with or without CA09 infection
Assay type: cell-based, human
Settings: for Substrate use, 590 nm absorbance normalized to zero hour, 0 hr: Biolog PMM2, 0 hr; for Substrate use, 590 nm absorbance normalized to zero hour, 1 hr: Biolog PMM2, 1 hr; for Substrate use, 590 nm absorbance normalized to zero hour, 5 hr: Biolog PMM2, 5 hr; for Substrate use, 590 nm absorbance normalized to zero hour, 7 hr: Biolog PMM2, 7 hr
[1] = Control (uninfected) NHBE cells
[2] = Virus (CA09, MOI 1) infected NHBE cells
[3] = Virus (CA09-infected, MOI 1) NHBE cells
[4] = Virus (CA09-infected NHBE cells, MOI 1)
[5] = Virus: CA09-infected NHBE cells, MOI 1, Biolog PMM2

In the case of `CO[C@H]1O[C@H](CO)[C@@H](O)[C@H](O)[C@H]1O` [a-Methyl-D-Glucoside], the “590 nm absorbance normalized to zero hour (substrate use), 0 hr” value [1] is reported as 1.00, the “590 nm absorbance normalized to zero hour (substrate use), 1 hr” value [1] is reported as 1.18 and the “590 nm absorbance normalized to zero hour (substrate use), 2 hr” value (shortened to “590 nm absorbance normalized … 2 hr”) [1] is reported as 1.07. The “590 nm absorbance normalized to zero hour (substrate use), 3 hr” value (“590 nm absorbance normalized … 3 hr” below) [1] was 1.02, the “590 nm absorbance normalized to zero hour (substrate use), 4 hr” value (from here on “590 nm absorbance normalized … 4 hr”) [1] was 0.58 and the “590 nm absorbance normalized to zero hour (substrate use), 6 hr” value (shortened to “590 nm absorbance normalized … 6 hr”) [1] was 0.90. The “590 nm absorbance normalized to zero hour (substrate use), 8 hr” value (“590 nm absorbance normalized … 8 hr” below) [1] was 0.74, the “590 nm absorbance normalized to zero hour (substrate use), 9 hr” value (from here on “590 nm absorbance normalized … 9 hr”) [1] was 0.79 and the “590 nm absorbance normalized to zero hour (substrate use), 10 hr” value (shortened to “590 nm absorbance normalized … 10 hr”) [1] was 0.83. The “590 nm absorbance normalized to zero hour (substrate use), 11 hr” value (“590 nm absorbance normalized … 11 hr” for short) [1] was 0.93, the “Substrate use, 590 nm absorbance normalized to zero hour, 0 hr” value [1] was 1.00 and the “Substrate use, 590 nm absorbance normalized to zero hour, 1 hr” value [1] was 1.18. For the same compound, the “Substrate use, 590 nm absorbance normalized to zero hour, 5 hr” value [1] was 0.76, the “Substrate use, 590 nm absorbance normalized to zero hour, 7 hr” value [1] was 0.68 and the “Substrate use, 590 nm absorbance normalized to zero hour, 0 hr” value [2] was 1.00. The “Substrate use, 590 nm absorbance normalized to zero hour, 1 hr” value [2] was 1.29, the “Substrate use, 590 nm absorbance normalized to zero hour, 5 hr” value [2] was 2.31 and the “Substrate use, 590 nm absorbance normalized to zero hour, 7 hr” value [2] was 2.67. For the same compound, the “590 nm absorbance normalized to zero hour (substrate use), 0 hr” value [3] was 1.00, the “590 nm absorbance normalized to zero hour (substrate use), 1 hr” value [3] was 1.29 and the “590 nm absorbance normalized … 2 hr” value [3] was 1.66. The “590 nm absorbance normalized … 3 hr” value [3] was 1.87, the “590 nm absorbance normalized … 4 hr” value [3] was 1.99 and the “590 nm absorbance normalized … 6 hr” value [3] was 2.50. For the same compound, the “590 nm absorbance normalized … 8 hr” value [3] was 2.77, the “590 nm absorbance normalized … 9 hr” value [3] was 3.14 and the “590 nm absorbance normalized … 10 hr” value [3] was 3.10. The “590 nm absorbance normalized … 11 hr” value [3] was 3.31.
`CO[C@H]1O[C@H](CO)[C@@H](O)[C@H](O)[C@@H]1O` [a-Methyl-D-Mannoside] was tested, and the “590 nm absorbance normalized to zero hour (substrate use), 0 hr” value [1] was 1.00, the “590 nm absorbance normalized to zero hour (substrate use), 1 hr” value [1] was 1.26 and the “590 nm absorbance normalized … 2 hr” value [1] was 1.58. The “590 nm absorbance normalized … 3 hr” value [1] was 1.74, the “590 nm absorbance normalized … 4 hr” value [1] was 1.89 and the “590 nm absorbance normalized … 6 hr” value [1] was 2.77. For the same compound, the “590 nm absorbance normalized … 8 hr” value [1] was 2.13, the “590 nm absorbance normalized … 9 hr” value [1] was 2.16 and the “590 nm absorbance normalized … 10 hr” value [1] was 2.95. For the same compound, the “590 nm absorbance normalized … 11 hr” value [1] was 2.58, the “Substrate use, 590 nm absorbance normalized to zero hour, 0 hr” value [1] was 1.00 and the “Substrate use, 590 nm absorbance normalized to zero hour, 1 hr” value [1] was 1.26. For the same compound, the “Substrate use, 590 nm absorbance normalized to zero hour, 5 hr” value [1] was 2.33, the “Substrate use, 590 nm absorbance normalized to zero hour, 7 hr” value [1] was 2.46 and the “590 nm absorbance normalized to zero hour (substrate use), 0 hr” value [4] was 1.00. For the same compound, the “590 nm absorbance normalized to zero hour (substrate use), 1 hr” value [4] was 0.38, the “590 nm absorbance normalized … 2 hr” value [4] was 0.54 and the “590 nm absorbance normalized … 3 hr” value [4] was 0.64. The “590 nm absorbance normalized … 4 hr” value [4] was 0.69, the “590 nm absorbance normalized to zero hour (substrate use), 5 hr” value [4] was 0.83 and the “590 nm absorbance normalized … 6 hr” value [4] was 0.89. For the same compound, the “590 nm absorbance normalized to zero hour (substrate use), 7 hr” value [4] was 0.93, the “590 nm absorbance normalized … 8 hr” value [4] was 0.99 and the “590 nm absorbance normalized … 9 hr” value [4] was 1.10. The “590 nm absorbance normalized … 10 hr” value [4] was 1.14, the “590 nm absorbance normalized … 11 hr” value [4] was 1.24 and the “590 nm absorbance normalized to zero hour (substrate use), 0 hr” value [5] was 1.00. The “590 nm absorbance normalized to zero hour (substrate use), 1 hr” value [5] was 0.38, the “590 nm absorbance normalized … 2 hr” value [5] was 0.54 and the “590 nm absorbance normalized … 3 hr” value [5] was 0.64. The “590 nm absorbance normalized … 4 hr” value [5] was 0.69, the “590 nm absorbance normalized to zero hour (substrate use), 5 hr” value [5] was 0.83 and the “590 nm absorbance normalized … 6 hr” value [5] was 0.89. The “590 nm absorbance normalized to zero hour (substrate use), 7 hr” value [5] was 0.93, the “590 nm absorbance normalized … 8 hr” value [5] was 0.99 and the “590 nm absorbance normalized … 9 hr” value [5] was 1.10. The “590 nm absorbance normalized … 10 hr” value [5] was 1.14 and the “590 nm absorbance normalized … 11 hr” value [5] was 1.24.
With `C[C@@H](O)CC(=O)O` [b-Hydroxy-Butyric Acid] the “590 nm absorbance normalized to zero hour (substrate use), 0 hr” value [1] was 1.00, the “590 nm absorbance normalized to zero hour (substrate use), 1 hr” value [1] was 1.65 and the “590 nm absorbance normalized … 2 hr” value [1] was 2.08. For the same compound, the “590 nm absorbance normalized … 3 hr” value [1] was 2.16, the “590 nm absorbance normalized … 4 hr” value [1] was 2.31 and the “590 nm absorbance normalized … 6 hr” value [1] was 2.37. The “590 nm absorbance normalized … 8 hr” value [1] was 2.68, the “590 nm absorbance normalized … 9 hr” value [1] was 2.90 and the “590 nm absorbance normalized … 10 hr” value [1] was 3.02. The “590 nm absorbance normalized … 11 hr” value [1] was 7.04, the “Substrate use, 590 nm absorbance normalized to zero hour, 0 hr” value [1] was 1.00 and the “Substrate use, 590 nm absorbance normalized to zero hour, 1 hr” value [1] was 1.65. For the same compound, the “Substrate use, 590 nm absorbance normalized to zero hour, 5 hr” value [1] was 2.75, the “Substrate use, 590 nm absorbance normalized to zero hour, 7 hr” value [1] was 2.49 and the “590 nm absorbance normalized to zero hour (substrate use), 0 hr” value [3] was 1.00. The “590 nm absorbance normalized to zero hour (substrate use), 1 hr” value [3] was 1.78, the “590 nm absorbance normalized … 2 hr” value [3] was 2.31 and the “590 nm absorbance normalized … 3 hr” value [3] was 2.61. The “590 nm absorbance normalized … 4 hr” value [3] was 2.77, the “590 nm absorbance normalized to zero hour (substrate use), 5 hr” value [3] was 3.16 and the “590 nm absorbance normalized … 6 hr” value [3] was 3.34. For the same compound, the “590 nm absorbance normalized to zero hour (substrate use), 7 hr” value [3] was 3.47, the “590 nm absorbance normalized … 8 hr” value [3] was 3.62 and the “590 nm absorbance normalized … 9 hr” value [3] was 3.79. The “590 nm absorbance normalized … 10 hr” value [3] was 3.87, the “590 nm absorbance normalized … 11 hr” value [3] was 3.29 and the “590 nm absorbance normalized to zero hour (substrate use), 0 hr” value [5] was 1.00. The “590 nm absorbance normalized to zero hour (substrate use), 1 hr” value [5] was 1.78, the “590 nm absorbance normalized … 2 hr” value [5] was 2.31 and the “590 nm absorbance normalized … 3 hr” value [5] was 2.61. The “590 nm absorbance normalized … 4 hr” value [5] was 2.77, the “590 nm absorbance normalized to zero hour (substrate use), 5 hr” value [5] was 3.16 and the “590 nm absorbance normalized … 6 hr” value [5] was 3.34. The “590 nm absorbance normalized to zero hour (substrate use), 7 hr” value [5] was 3.47, the “590 nm absorbance normalized … 8 hr” value [5] was 3.62 and the “590 nm absorbance normalized … 9 hr” value [5] was 3.79. The “590 nm absorbance normalized … 10 hr” value [5] was 3.87 and the “590 nm absorbance normalized … 11 hr” value [5] was 3.29.
